Experimental data: patent US11413328B2, “Methods for treating inflammatory conditions of the lungs” (priority 2016, dated 2022)

Key:
[1] = system: murine house dust mite/Freunds complete adjuvant driven model of allergic asthma; assay: Total and differential cell counts in BALF, HDM asthma model (Example 2); assay type: in vivo, BALB/c mice; settings: dexamethasone orally 1 mg/kg BID day 14; 48 hours post challenge
Procedure: Female 7-10 weeks old BALB/c mice were randomly allocated into 7 study groups one day prior to study start and subcutaneously (SC) sensitized to house dust mite (100 μg HDM in 200 μL saline plus Freunds complete adjuvant in 0.9% saline). Mice were then intranasally (IN) challenged with HDM on day 14 (HDM 25 μg in 50 μL of saline). […] The initial dose was administered 60 minutes prior to challenge, and the subsequent doses approximately 6 hours apart. Airway inflammation: At 48 hours post challenge, bronchoalveolar lavage was performed washing the lungs with 3 volumes of cold PBS (0.4; 0.3 and 0.3 mL, total 1 mL). Total and differential leucocyte cell counts were determined on an automated haematological analyser Sysmex XT-2000iV.

[2] = system: Dextran Sodium Sulphate (DSS) induced colitis model; assay: Acute 10-day DSS induced colitis model (Example 7); assay type: in vivo, mice; settings: Pred 1 mg/kg orally daily
Procedure: To determine and assess the anti-inflammatory effect of “hBD-2-albumin fusion C-terminal” in an acute 10-day Dextran Sodium Sulphate (DSS) induced colitis model in mice.
“hBD-2-albumin C-terminal” was administered intravenously via the tail vein or subcutaneously with the use of a sterile 25G needle in a dosing volume of 10 ml/kg body weight. The animals received 1 dose daily for 10 […] days. The active control Prednisolone (Pred) was given orally by gavage at a dose of 1 mg/kg in a dosing volume of 10 ml/kg body weight OD.

[3] = system: microbiota of the intestine; assay: 16S microbiota analysis, interventional defensin treatment in diet-induced obese mice (Example 11); assay type: in vivo; settings: intervention
Text: The experiment elucidates the effect of hBD2 and HD5 on the microbiota in diet-induced obese mice. A run-in period of 13 weeks where mice were fed a very HFD (60% energy from fat) preceded the intervention. Only mice meeting the criteria of a minimum of 12 gram weight gain (approximately 50% of initial bodyweight) during the run-in period were included in the final analyses. […] They were exposed to all experimental tests, but excluded from the analyses.
Before the intervention all mice were MR scanned. Cages of mice were allocated to experimental groups based on their fat mass. All subsequent measures were paired with data from the same mouse before the intervention. A LFD (low fat diet) reference group was running in parallel. As controls for the intervention 2 additional groups were included: 1 very HFD and 1 LFD. Experimental mice stayed on the very HFD during the intervention. The mice were on the experimental diet for 10 weeks. They were co-housed throughout the experiment, 4 mice per cage, 3 cages per group. All tests ran over 3 days, 1 cage per group per day.
Microbial analyses were carried out to study the microbiota of the intestine. Longitudinal 16S characterization was conducted on 4 paired samples from 60 mice, 240 samples in total. Each mouse was sampled prior to diet change, 1 week post diet change, 4 weeks post diet change and at termination, thus ensuring a thorough characterization of the faecal microbiota as a result of defensin treatment.

[4] = system: microbiota of the intestine; assay: 16S microbiota analysis, prophylactic defensin treatment in high fat diet model (Example 10); assay type: in vivo, mice
Text: Mice were housed in trios, 4 cages per group. Feed intake was registered daily just before lights were turned off at […]. Individual mice were subjected to experimental procedures in altered order both group and cage wise. Mice were kept at room temperature under a 12-hour light/dark cycle at SPF standard conditions. The treatment regime is described in FIG. 38. Mice were fed either a high fat diet (HFD) or a low fat (LF) control diet. The HFD contained 4 subgroups; 1 hBD2, 1 HD5, 1 hBD2/HD5 and 1 standard HFD without supplementation of defensins. Defensin concentration was 1.2 mg hBD2 per kg mouse per day. HD5 was given in equimolar concentration to hBD2. […] Microbial analyses were carried out to study the microbiota of the intestine. Longitudinal 16S characterization was conducted on 4 paired samples from 60 mice, 240 samples in total. Each mouse was sampled prior to diet change, 1 week post diet change, 4 weeks post diet change and at termination, thus ensuring a thorough characterization of the faecal microbiota as a result of defensin treatment.

## C[C@@H]1C[C@H]2[C@@H]3CCC4=CC(=O)C=C[C@]4(C)[C@@]3(F)[C@@H](O)C[C@]2(C)[C@@]1(O)C(=O)CO [Dexamethasone, reference compound]
[1]
  neutrophil count in BALF: failed to inhibit

## C[C@]12C=CC(=O)C=C1CC[C@@H]1[C@@H]2[C@@H](O)C[C@@]2(C)[C@H]1CC[C@]2(O)C(=O)CO [Pred, Prednisolone]
[2]
  histological injury, proximal part of the colon: failed to significantly reduce
[2]; day 9, p<0.05
  DAI: significant inhibition
[2]; p<0.01
  histological injury, distal colon: did reduce

## human intestinal alpha defensin 5 (ATCYCRTGRCATRESLSGVCEISGRLYRLCCR; listed as Homo sapiens) [HD5]
[3]; HD5 p<0.02
  abundance of Alloprevotella in the colon: increased the abundance of Alloprevotella statistically significantly
[3]; hBD2 p<0.0001
  relative abundance of Bifidobacteriaceae in the small intestine: trend towards HD5 increasing the abundance
[4]; 1.2 mg hBD2 per kg per day in feed, HD5 equimolar, combination 50% + 50%
  effect on microbial presence / microbial abundance: affected primarily the microbial abundance
[4]; prophylaxis, p<0.02
  abundance of Allobaculum in the small intestine: statistically significant increase
